Laboratory results taken from PubChem BioAssay (NCI).
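48-hour exposure; five concentrations; linearly interpolated endpoints. At the GI50, growth is halved. The concentration for full growth arrest is given as TGI.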

Assays:
Test in all cases: growth of human tumour cells (NCI), 48 h
A498 renal = tested on: A498 renal
UO-31 renal = tested on: UO-31 renal
SF-539 CNS = tested on: SF-539 CNS
HCT-116 colon = tested on: HCT-116 colon
NCI-H23 lung = tested on: NCI-H23 lung
SK-MEL-28 melanoma = tested on: SK-MEL-28 melanoma
HL-60(TB) leukemia = tested on: HL-60(TB) leukemia
SN12C renal = tested on: SN12C renal
SK-MEL-5 melanoma = tested on: SK-MEL-5 melanoma
SK-MEL-2 melanoma = tested on: SK-MEL-2 melanoma
UACC-257 melanoma = tested on: UACC-257 melanoma

| Structure (SMILES) | TGI (A498 renal) | TGI (UO-31 renal) | TGI (SF-539 CNS) | TGI (HCT-116 colon) | TGI (NCI-H23 lung) | TGI (SK-MEL-28 melanoma) | TGI (HL-60(TB) leukemia) | TGI (SN12C renal) | TGI (SK-MEL-5 melanoma) | TGI (SK-MEL-2 melanoma) | GI50 (A498 renal) | GI50 (UO-31 renal) | GI50 (SF-539 CNS) | GI50 (SN12C renal) | TGI (UACC-257 melanoma) | GI50 (UACC-257 melanoma) | GI50 (HCT-116 colon) | GI50 (HL-60(TB) leukemia) | GI50 (SK-MEL-2 melanoma) |
| --- | --- | --- | --- | --- | --- | --- | --- | --- | --- | --- | --- | --- | --- | --- | --- | --- | --- | --- | --- |
| COc1cc(N/N=C/C#N)cc(OC)c1OC | > 10 µM | > 10 µM | > 10 µM | > 10 µM | > 10 µM | > 10 µM | 5.64 µM | > 10 µM | > 10 µM | > 10 µM | – | – | – | – | – | – | – | – | – |
| CCOC(=O)Nc1cc2c(c(N)n1)N=C(c1ccccc1)[C@H](C)N2 | – | 44.5 µM | 0.0669 µM | 0.0173 µM | 0.0464 µM | – | < 0.0001 µM | > 100 µM | – | 13.6 µM | < 0.1 nM | 10.1 µM | 26.9 nM | < 0.1 nM | – | – | – | – | – |
| O=C(O)CCSCc1ccc(I)cc1 | > 100 µM | > 100 µM | – | > 100 µM | > 100 µM | > 100 µM | > 100 µM | > 100 µM | > 100 µM | > 100 µM | – | – | – | – | > 100 µM | – | – | – | – |
| CCC1CN2CCC1CC2 (configuration not stated) | > 100 µM | > 100 µM | > 100 µM | > 100 µM | > 100 µM | > 100 µM | > 100 µM | > 100 µM | > 100 µM | > 100 µM | – | – | – | – | > 100 µM | – | – | – | – |
| O=C(N/C(=C\c1cccc([N+](=O)[O-])c1)c1nc2[nH]c(=S)[nH]c(=O)c2[nH]1)c1ccccc1 | > 100 µM | > 100 µM | > 100 µM | > 100 µM | > 100 µM | > 100 µM | > 100 µM | > 100 µM | > 100 µM | > 100 µM | – | – | – | – | > 100 µM | – | – | – | – |
| NC(=S)Nc1cc(Cl)ccc1Cl | > 100 µM | > 100 µM | > 100 µM | > 100 µM | > 100 µM | > 100 µM | > 100 µM | > 100 µM | > 100 µM | > 100 µM | – | – | – | – | > 100 µM | – | – | – | – |
| CCCCCCCCCCCCCCCC(=O)OCC1CCCN2CCCCC12 (configuration not stated) | > 100 µM | > 100 µM | > 100 µM | > 100 µM | > 100 µM | > 100 µM | > 100 µM | > 100 µM | > 100 µM | > 100 µM | – | – | – | – | > 100 µM | – | – | – | – |
| C/C(=N\Oc1cc(Cl)ncn1)c1ccccn1 | – | > 100 µM | > 100 µM | > 100 µM | 92.7 µM | > 100 µM | – | > 100 µM | > 100 µM | > 100 µM | – | – | – | – | > 100 µM | – | – | – | – |
| CC[C@H](Nc1nc(N)nc(C)c1C#N)c1nc2cccc(NCc3ccc(C(=O)NO)cc3)c2c(=O)n1-c1ccccc1 | 2.42 µM | – | 3.63 µM | 4.34 µM | – | – | > 100 µM | – | – | 6.21 µM | 1040 nM | – | 1560 nM | – | 6.2 µM | 1940 nM | 1820 nM | 3.04 µM | 2430 nM |
| O=C(CCl)NC(Cc1ccc(F)cc1)C(=O)O (configuration not stated) | > 100 µM | > 100 µM | > 100 µM | > 100 µM | > 100 µM | > 100 µM | > 100 µM | > 100 µM | > 100 µM | > 100 µM | – | – | – | – | > 100 µM | – | – | – | – |
